# Experimental data as given in the supplement of paper PMC7017272.
# ± gives the standard deviation of the averaged measurements.
# Legend:
# Settings in all cases: treatment time: 3 days
# UT-SCC-24A [1] = test: drug sensitivity score (DSS); higher = more sensitive
# Description: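 HNSCC cell lines (500 cells/well, 384-well) were cultured on plastic, on top of (2D) or embedded (3D) in Matrigel or human leiomyoma matrix Myogel (500 ug/mL; Myogel 3D mixed with rat collagen I). Cells were treated for 3 days with 5 ten-fold concentrations of each drug, and viability was read by CellTiter-Glo. Suffixes _1/_2/_3 on drug names are replicates.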
# UT-SCC-106A [2] = test: maximal % inhibition of viability relative to DMSO; higher = stronger effect
# Description: (§1)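 HNSCC cell lines (500 cells/well, 384-well) were cultured on plastic, on top of (2D) or embedded (3D) in Matrigel or human leiomyoma matrix Myogel (500 ug/mL; Myogel 3D mixed with rat collagen I). Cells were treated for 3 days with 5 ten-fold concentrations of each drug, and viability was read by CellTiter-Glo. Viability was normalised to DMSO and benzethonium chloride controls and fitted with the FIMM DSRT pipeline to give IC50 (nM), maximal % inhibition and DSS. Suffixes _1/_2/_3 are replicates. Only inhibition-mode (IC50) fits are kept.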
# UT-SCC-14 = test: as above
# Description: as §1
# UT-SCC-24B [3] = test: as above
# Description: as §1
# UT-SCC-28 [4] = test: as above
# Description: as §1
# UT-SCC-40 [5] = test: as above
# Description: as §1
# UT-SCC-42A = test: as above
# Description: as §1
# UT-SCC-42B = test: as above
# Description: as §1
# UT-SCC-44 = test: as above
# Description: as §1
# UT-SCC-73 = test: as above
# Description: as §1
# UT-SCC-81 = test: as above
# Description: as §1
# UT-SCC-8 = test: as above
# Description: as §1
# UT-SCC-24A [6] = test: as above
# Description: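 HNSCC cell lines (500 cells/well, 384-well) were cultured on plastic, on top of (2D) or embedded (3D) in Matrigel or human leiomyoma matrix Myogel (500 ug/mL; Myogel 3D mixed with rat collagen I). Cells were treated for 3 days with 5 ten-fold concentrations of each drug, and viability was read by CellTiter-Glo. Viability was normalised to DMSO (0% inhibition) and 100 uM benzethonium chloride (100% inhibition) controls and fitted with the FIMM DSRT pipeline to give IC50 (nM), maximal % inhibition and the drug sensitivity score (DSS). Suffixes _1/_2/_3 on drug names are replicates.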
# UT-SCC-106A [7] = test: relative IC50 (midpoint of the fitted curve; maximal inhibition may be below 50%); higher = less potent
# Method in brief: (§2)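 Viability was read with CellTiter-Glo 2.0 luminescence and scaled against vehicle (0.1% DMSO) and cell-killing control wells. The assay used HPV-negative HNSCC cell lines at 500 cells/well in 384-well plates, grown on plastic, on Matrigel or Myogel coatings (500 µg/mL), or embedded in Matrigel or Myogel plus rat collagen I, and treated for 3 days at five 10-fold concentrations. IC50, maximal inhibition and drug sensitivity score were derived from percent-inhibition dose–response curves fitted in the FIMM pipeline.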
# UT-SCC-24B [8] = test: as above
# Method in brief: as §2
# UT-SCC-28 [9] = test: as above
# Method in brief: as §2
# UT-SCC-40 [10] = test: as above
# Method in brief: as §2
# [11] = culture condition: embedded in Matrigel
# [12] = culture condition: embedded in Myogel + collagen I
# [13] = culture condition: on top of Matrigel
# [14] = culture condition: on top of Myogel
# [15] = culture condition: plastic 2D (no matrix)
smiles,measurement,setting,value
Cn1cnc2c(F)c(Nc3ccc(Br)cc3F)c(C(=O)NOCCO)cc21 [Binimetinib],drug sensitivity score,UT-SCC-24A [1]; [11],24.4 ± 3.8 DSS
same,drug sensitivity score,UT-SCC-24A [1]; [12],9.83 ± 4.3 DSS
same,drug sensitivity score,UT-SCC-24A [1]; [13],19.9 ± 0.72 DSS
same,drug sensitivity score,UT-SCC-24A [1]; [14],6.9 ± 0.85 DSS
same,drug sensitivity score,UT-SCC-24A [1]; [15],18.1 ± 0.64 DSS
same,maximal % inhibition of viability,UT-SCC-106A [2]; [11],48.3 ± 3.9%
same,maximal % inhibition of viability,UT-SCC-106A [2]; [12],16.4 ± 2.9%
same,maximal % inhibition of viability,UT-SCC-106A [2]; [13],60.1 ± 2.9%
same,maximal % inhibition of viability,UT-SCC-106A [2]; [14],20.6 ± 2.3%
same,maximal % inhibition of viability,UT-SCC-106A [2]; [15],62.2 ± 1.8%
same,maximal % inhibition of viability,UT-SCC-14; [11],29.8 ± 10%
same,maximal % inhibition of viability,UT-SCC-14; [12],33.8 ± 15%
same,maximal % inhibition of viability,UT-SCC-14; [13],33.3 ± 9.7%
same,maximal % inhibition of viability,UT-SCC-14; [14],32.4 ± 24%
same,maximal % inhibition of viability,UT-SCC-14; [15],25.9 ± 25%
same,maximal % inhibition of viability,UT-SCC-24B [3]; [11],60.3 ± 0.64%
same,maximal % inhibition of viability,UT-SCC-24B [3]; [12],49.6 ± 11%
same,maximal % inhibition of viability,UT-SCC-24B [3]; [13],50.7 ± 2.5%
same,maximal % inhibition of viability,UT-SCC-24B [3]; [14],28.6 ± 5.1%
same,maximal % inhibition of viability,UT-SCC-24B [3]; [15],69.4 ± 4.1%
same,maximal % inhibition of viability,UT-SCC-28 [4]; [11],38.5 ± 2.6%
same,maximal % inhibition of viability,UT-SCC-28 [4]; [12],12.5 ± 11%
same,maximal % inhibition of viability,UT-SCC-28 [4]; [13],31.2 ± 2.9%
same,maximal % inhibition of viability,UT-SCC-28 [4]; [15],21.9 ± 6.2%
same,maximal % inhibition of viability,UT-SCC-40 [5]; [11],77.3 ± 2.2%
same,maximal % inhibition of viability,UT-SCC-40 [5]; [12],58.1 ± 13%
same,maximal % inhibition of viability,UT-SCC-40 [5]; [13],72.4 ± 2%
same,maximal % inhibition of viability,UT-SCC-40 [5]; [14],44.7 ± 8.7%
same,maximal % inhibition of viability,UT-SCC-40 [5]; [15],52.8 ± 6%
same,maximal % inhibition of viability,UT-SCC-42A; [11],48.9 ± 1.6%
same,maximal % inhibition of viability,UT-SCC-42A; [12],24.5 ± 4.6%
same,maximal % inhibition of viability,UT-SCC-42A; [13],52.2 ± 5.8%
same,maximal % inhibition of viability,UT-SCC-42A; [14],28.6 ± 5.7%
same,maximal % inhibition of viability,UT-SCC-42A; [15],46.3 ± 2.8%
same,maximal % inhibition of viability,UT-SCC-42B; [11],66.2 ± 7.5%
same,maximal % inhibition of viability,UT-SCC-42B; [13],48.5 ± 15%
same,maximal % inhibition of viability,UT-SCC-42B; [14],24.8 ± 7%
same,maximal % inhibition of viability,UT-SCC-42B; [15],31.3 ± 8.6%
same,maximal % inhibition of viability,UT-SCC-44; [11],70.1 ± 4.2%
same,maximal % inhibition of viability,UT-SCC-44; [12],31.5 ± 8.1%
same,maximal % inhibition of viability,UT-SCC-44; [13],52.9 ± 11%
same,maximal % inhibition of viability,UT-SCC-44; [14],34 ± 5.1%
same,maximal % inhibition of viability,UT-SCC-44; [15],45 ± 6.7%
same,maximal % inhibition of viability,UT-SCC-73; [11],80.5 ± 1.5%
same,maximal % inhibition of viability,UT-SCC-73; [12],53.5 ± 17%
same,maximal % inhibition of viability,UT-SCC-73; [13],76.8 ± 1.7%
same,maximal % inhibition of viability,UT-SCC-73; [14],60.7 ± 0.93%
same,maximal % inhibition of viability,UT-SCC-73; [15],66.9 ± 4.2%
same,maximal % inhibition of viability,UT-SCC-81; [11],85.5 ± 1%
same,maximal % inhibition of viability,UT-SCC-81; [12],18.7 ± 4.7%
same,maximal % inhibition of viability,UT-SCC-81; [13],76.3 ± 3.8%
same,maximal % inhibition of viability,UT-SCC-81; [14],23.5 ± 3.9%
same,maximal % inhibition of viability,UT-SCC-81; [15],38.7 ± 2.1%
same,maximal % inhibition of viability,UT-SCC-8; [11],40.9 ± 26%
same,maximal % inhibition of viability,UT-SCC-8; [12],19.8 ± 23%
same,maximal % inhibition of viability,UT-SCC-8; [13],28.9 ± 14%
same,maximal % inhibition of viability,UT-SCC-8; [14],29 ± 15%
same,maximal % inhibition of viability,UT-SCC-8; [15],31 ± 25%
same,maximal % inhibition of viability,UT-SCC-24A [6]; [11],79.6 ± 1.9%
same,maximal % inhibition of viability,UT-SCC-24A [6]; [12],37 ± 7.2%
same,maximal % inhibition of viability,UT-SCC-24A [6]; [13],72.5 ± 1.2%
same,maximal % inhibition of viability,UT-SCC-24A [6]; [14],35.6 ± 4.6%
same,maximal % inhibition of viability,UT-SCC-24A [6]; [15],68.3 ± 1.5%
same,relative IC50,UT-SCC-106A [7]; [11],0.00897 µM
same,relative IC50,UT-SCC-106A [7]; [13],0.0138 µM
same,relative IC50,UT-SCC-106A [7]; [14],0.101 µM
same,relative IC50,UT-SCC-106A [7]; [15],0.0193 µM
same,relative IC50,UT-SCC-24B [8]; [11],0.115 µM
same,relative IC50,UT-SCC-24B [8]; [13],0.101 µM
same,relative IC50,UT-SCC-24B [8]; [15],0.069 µM
same,relative IC50,UT-SCC-28 [9]; [12],> 0.989 µM
same,relative IC50,UT-SCC-28 [9]; [13],0.0265 µM
same,relative IC50,UT-SCC-40 [10]; [11],0.0165 µM
same,relative IC50,UT-SCC-40 [10]; [13],0.0394 µM
same,relative IC50,UT-SCC-40 [10]; [14],0.054 µM
same,relative IC50,UT-SCC-40 [10]; [15],0.0517 µM
